Read-outs that look alike come from different tables or passages of the source.
Biological target: T1, FAAH (Rattus norvegicus, UniProt P97612)
T1 construct: Preparation of Rat Brain Membranes Preparations (FAAH Enzyme Solution); from tissue; host or cells: rat cerebrum (brain membrane preparation)
T1 sequence (P97612 1-579): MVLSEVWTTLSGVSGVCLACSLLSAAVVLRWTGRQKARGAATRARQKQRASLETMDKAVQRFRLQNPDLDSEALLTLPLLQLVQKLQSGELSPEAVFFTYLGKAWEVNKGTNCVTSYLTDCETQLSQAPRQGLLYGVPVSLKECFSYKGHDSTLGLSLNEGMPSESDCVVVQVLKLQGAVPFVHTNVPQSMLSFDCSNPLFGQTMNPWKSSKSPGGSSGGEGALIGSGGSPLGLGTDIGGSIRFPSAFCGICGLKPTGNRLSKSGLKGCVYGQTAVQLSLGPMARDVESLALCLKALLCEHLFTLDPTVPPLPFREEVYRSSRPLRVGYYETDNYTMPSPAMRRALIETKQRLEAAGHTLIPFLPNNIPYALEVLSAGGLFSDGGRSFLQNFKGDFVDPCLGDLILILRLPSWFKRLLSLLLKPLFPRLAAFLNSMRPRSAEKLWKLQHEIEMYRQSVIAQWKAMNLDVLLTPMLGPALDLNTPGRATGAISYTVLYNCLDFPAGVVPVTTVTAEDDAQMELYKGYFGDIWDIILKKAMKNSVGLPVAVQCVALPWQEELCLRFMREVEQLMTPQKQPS
Test: Determination of FAAH inhibitory activity in rat (rat brain membrane preparations, [3H]-anandamide hydrolysis)
Format: biochemical
Conditions: for inhibition at 0.1 µM: read-out: FAAH Inhibition, Inhibition Rate at 100 nM; for IC50: test substance 0.1 nM to 1 μM, read-out: FAAH Inhibition IC50
Procedure, shortened: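 Rat cerebrum membranes (100 μg/mL protein) preincubated 10 min at 37 °C with compound (1% DMSO) in pH 7.6 Tris buffer with 1.5% BSA. Substrate 2 nM [3H]-anandamide plus 2 μM anandamide added for 10 min at 37 °C. [3H]-ethanolamine in the aqueous phase after chloroform/methanol extraction was scintillation counted; IC50 over 0.1 nM–1 μM.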

[1] = rat brain membrane preparations, 100 nM test substance
[2] = rat brain membrane preparations

| SMILES | inhibition at 0.1 µM [1] [%] | IC50 [2] [nM] | inhibition at 0.1 µM [%] |
| --- | --- | --- | --- |
| Cn1c(=O)n(C(=O)N2CCC(CCc3ccc(Cl)cc3)CC2)c2cnc(-c3cccnc3)nc21 [Example 147, 7-({4-[2-(4-Chlorophenyl)ethyl]piperidin-1-yl}carbonyl)-9-methyl-2-(pyridin-3-yl)-7,9-dihydro-8H-purine-8-one] | 96 | < 1 | – |
| CN(CCc1ccc(Cl)cc1)C(=O)n1c(=O)n(C)c2nc(-c3ccncc3)ncc21 [Example 150, N-[2-(4-Chlorophenyl)ethyl]-N,9-dimethyl-8-oxo-2-(pyridin-4-yl)-8,9-dihydro-7H-purine-7-carboxamide] | – | < 1 | 106 |
| CN(CCc1ccc(Cl)cc1)C(=O)n1c(=O)n(C)c2nc(C3CC3)ncc21 [Example 153, N-[2-(4-Chlorophenyl)ethyl]-2-cyclopropyl-N,9-dimethyl-8-oxo-8,9-dihydro-7H-purine-7-carboxamide] | 99 | 27 | – |
| CCCc1ncc2c(n1)n(C)c(=O)n2C(=O)N(C)CCc1ccc(Cl)cc1 [Example 154, N-[2-(4-Chlorophenyl)ethyl]-N,9-dimethyl-8-oxo-2-propyl-8,9-dihydro-7H-purine-7-carboxamide] | 101 | 2 | – |
| CCCCc1ncc2c(n1)n(C)c(=O)n2C(=O)N(C)CCc1ccc(Cl)cc1 [Example 155, 2-Butyl-N-[2-(4-chlorophenyl)ethyl]-N,9-dimethyl-8-oxo-8,9-dihydro-7H-purine-7-carboxamide] | 102 | 4 | – |
| CN(CCc1ccc(Cl)cc1)C(=O)n1c(=O)n(C)c2nc(C3CCCCC3)ncc21 [Example 156, N-[2-(4-Chlorophenyl)ethyl]-2-cyclohexyl-N,9-dimethyl-8-oxo-8,9-dihydro-7H-purine-7-carboxamide] | 96 | 10 | – |
| CN(CCc1ccc(Cl)cc1)C(=O)n1c(=O)n(C)c2nc(Cc3ccccc3)ncc21 [Example 158, 2-Benzyl-N-[2-(4-chlorophenyl)ethyl]-N,9-dimethyl-8-oxo-8,9-dihydro-7H-purine-7-carboxamide] | 102 | < 1 | – |
| CCN(C)C(=O)n1c(=O)n(C)c2nc(C3CC3)ncc21 [Example 159] | 61 | 81 | – |
| CCN(C)C(=O)n1c(=O)n(C)c2nc(CC(C)(C)C)ncc21 [Example 160, 2-(2,2-Dimethylpropyl)-N-ethyl-N,9-dimethyl-8-oxo-8,9-dihydro-7H-purine-7-carboxamide] | 98 | 14 | – |
| CCCCc1ncc2c(n1)n(C)c(=O)n2C(=O)N(C)CC [Example 161, 2-Butyl-N-ethyl-N,9-dimethyl-8-oxo-8,9-dihydro-7H-purine-7-carboxamide] | 93 | 19 | – |
| CCN(C)C(=O)n1c(=O)n(C)c2nc(C3CCCCC3)ncc21 [Example 162, 2-Cyclohexyl-N-ethyl-N,9-dimethyl-8-oxo-8,9-dihydro-7H-purine-7-carboxamide] | 72 | 38 | – |
| Cn1c(=O)n(C(=O)N2CCC2)c2nc(CCc3cccc(F)c3)ncc21 [Example 164, 9-(Azetidin-1-ylcarbonyl)-2-[2-(3-fluorophenyl)ethyl]-7-methyl-7,9-dihydro-8H-purine-8-one] | 98 | 5 | – |
| Cn1c(=O)n(C(=O)N2CCCC2)c2cnc(-c3ccccc3F)nc21 [Example 166, 2-(2-fluorophenyl)-9-methyl-7-(pyrrolidin-1-ylcarbonyl)-7,9-dihydro-8H-purine-8-one] | 99 | 24 | – |
| Cn1c(=O)n(C(=O)N2CCCC2)c2cnc(-c3cccc(F)c3)nc21 [Example 167, 2-(3-Fluorophenyl)-9-methyl-7-(pyrrolidin-1-ylcarbonyl)-7,9-dihydro-8H-purine-8-one] | 101 | 6 | – |
| Cn1c(=O)n(C(=O)N2CCCC2)c2cnc(-c3cccc(F)c3F)nc21 [Example 187, 2-(2,3-Difluorophenyl)-9-methyl-7-(pyrrolidin-1-ylcarbonyl)-7,9-dihydro-8H-purine-8-one] | 100 | 7 | – |
| Cn1c(=O)n(C(=O)N2CCCC2)c2cnc(-c3cc(F)ccc3F)nc21 [Example 189, 2-(2,5-Difluorophenyl)-9-methyl-7-(pyrrolidin-1-ylcarbonyl)-7,9-dihydro-8H-purine-8-one] | 100 | 7 | – |
| COc1cccc(-c2ncc3c(n2)n(C)c(=O)n3C(=O)N2CCCC2)c1F [Example 196, 2-(2-Fluoro-3-methoxyphenyl)-9-methyl-7-(pyrrolidin-1-ylcarbonyl)-7,9-dihydro-8H-purine-8-one] | 101 | 23 | – |
| COc1ccc(F)c(-c2ncc3c(n2)n(C)c(=O)n3C(=O)N2CCCC2)c1 [Example 200, 2-(2-Fluoro-5-methoxyphenyl)-9-methyl-7-(pyrrolidin-1-ylcarbonyl)-7,9-dihydro-8H-purine-8-one] | 97 | 30 | – |
| Cc1cc(F)cc(-c2ncc3c(n2)n(C)c(=O)n3C(=O)N2CCCC2)c1 [Example 201, 2-(3-Fluoro-5-methylphenyl)-9-methyl-7-(pyrrolidin-1-ylcarbonyl)-7,9-dihydro-8H-purine-8-one] | 99 | 26 | – |

Second part, led by results:

| inhibition at 0.1 µM [1] [%] | IC50 [2] [nM] | SMILES | inhibition at 0.1 µM [%] |
| --- | --- | --- | --- |
| 97 | 30 | CN(C)C(=O)n1c(=O)n(C)c2nc(-c3ccncc3)ncc21 [Example 148, N,N,9-Trimethyl-8-oxo-2-(pyridin-4-yl)-8,9-dihydro-7H-purine-7-carboxamide] | – |
| 102 | < 1 | CCOc1ccc(N2CCN(C(=O)n3c(=O)n(C)c4nc(-c5ccncc5)ncc43)CC2)cc1 [Example 149, 7-{[4-(4-Ethoxyphenyl)piperazin-1-yl]carbonyl}-9-methyl-2-(pyridin-4-yl)-7,9-dihydro-8H-purine-8-one] | – |
| 102 | 0.5 | CN(CCOc1ccc(Cl)cc1)C(=O)n1c(=O)n(C)c2nc(-c3ccncc3)ncc21 [Example 151, N-[2-(4-Chlorophenoxy)ethyl]-N,9-dimethyl-8-oxo-2-(pyridin-4-yl)-8,9-dihydro-7H-purine-7-carboxamide] | – |
| 102 | 0.6 | Cn1c(=O)n(C(=O)N2CCC(CCc3ccc(Cl)cc3)CC2)c2cnc(-c3ccncc3)nc21 [Example 152, 7-({4-[2-(4-Chlorophenyl)ethyl]piperidin-1-yl}carbonyl)-9-methyl-2-(pyridin-4-yl)-7,9-dihydro-8H-purine-8-one] | – |
| 103 | < 10 | Cc1ncc2c(n1)n(C)c(=O)n2C(=O)N(C)CCc1ccc(Cl)cc1 [Example 157, N-[2-(4-Chlorophenyl)ethyl]-N,2,9-trimethyl-8-oxo-8,9-dihydro-7H-purine-7-carboxamide] | – |
| 27 | > 100 | CCN(C)C(=O)n1c(=O)n(C)c2nc(C)ncc21 [Example 163] | – |
| 103 | 4 | CN(C)C(=O)n1c(=O)n(C)c2cnc(CCc3cccc(F)c3)nc21 [Example 165, 2-[2-(3-Fluorophenyl)ethyl]-N,N,7-trimethyl-8-oxo-7,8-dihydro-9H-purine-9-carboxamide] | – |
| 100 | 6 | Cn1c(=O)n(C(=O)N2CCCC2)c2cnc(-c3ccc(F)cc3)nc21 [Example 168, 2-(4-Fluorophenyl)-9-methyl-7-(pyrrolidin-1-ylcarbonyl)-7,9-dihydro-8H-purine-8-one] | – |
| 98 | 7 | Cc1cccc(-c2ncc3c(n2)n(C)c(=O)n3C(=O)N2CCCC2)c1 [Example 170, 9-Methyl-2-(3-methylphenyl)-7-(pyrrolidin-1-ylcarbonyl)-7,9-dihydro-8H-purine-8-one] | – |
| 102 | 19 | Cc1ccc(-c2ncc3c(n2)n(C)c(=O)n3C(=O)N2CCCC2)cc1 [Example 171, 9-Methyl-2-(4-methylphenyl)-7-(pyrrolidin-1-ylcarbonyl)-7,9-dihydro-8H-purine-8-one] | – |
| 101 | 7 | COc1cccc(-c2ncc3c(n2)n(C)c(=O)n3C(=O)N2CCCC2)c1 [Example 173, 2-(3-Methoxyphenyl)-9-methyl-7-(pyrrolidin-1-ylcarbonyl)-7,9-dihydro-8H-purine-8-one] | – |
| 100 | 28 | CN(C)c1ccc(-c2ncc3c(n2)n(C)c(=O)n3C(=O)N2CCCC2)cc1 [Example 182, 2-[4-(Dimethylamino)phenyl]-9-methyl-7-(pyrrolidin-1-ylcarbonyl)-7,9-dihydro-8H-purine-8-one] | – |
| 101 | 3 | CSc1ccc(-c2ncc3c(n2)n(C)c(=O)n3C(=O)N2CCCC2)cc1 [Example 183, 9-Methyl-2-[4-(methylsulfanyl)phenyl]-7-(pyrrolidin-1-ylcarbonyl)-7,9-dihydro-8H-purine-8-one] | – |
